From US8604016B2, “Heterocyclic inhibitors of glutaminase” (Calithera Biosciences Inc., priority 2011, dated 2013)

What follows are molecules tested against recombinant form of Glutaminase 1 (GAC) (Homo sapiens, UniProt O94925) (assay: Recombinant Enzyme Assay (GAC coupled to GDH, NADH absorbance, no preincubation)). Settings: no preincubation; read-out: GAC Delta N2 IC50 no preinc.
Type: biochemical
How it was run: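 GAC (4 nM) in Tris-HCl pH 8.0 with 150 mM K2HPO4, EDTA, BSA, DTT, plus 4 units/ml GDH and 4 mM ADP, without preincubation. Absorbance at 340 nm was read kinetically for 15 min at 20° C. Slopes (mAU/min) were compared with DMSO-only and control-compound wells on the same plate.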

Row | IC50 [nM] | SMILES
1 | 15000 | O=C(Cc1cc2ccccc2s1)Nc1nnc(CCCCc2nnc(NC(=O)Cc3cc4ccccc4s3)s2)s1 [Compound 233]
2 | 2000 | COC(=O)C(C(=O)Nc1nnc(CCSCCc2nnc(NC(=O)C(C(=O)OC)c3ccccc3)s2)s1)c1ccccc1 (stereo not drawn) [Compound 234]
3 | 520 | COc1ccccc1C(CO)C(=O)Nc1nnc(CCSCCc2nnc(NC(=O)C(CO)c3ccccc3OC)s2)s1 (stereo not drawn) [Compound 245]
4 | 2800 | COCOCCOC(C(=O)Nc1nnc(CCCCc2nnc(NC(=O)C(OCCOCOC)c3ccccc3)s2)s1)c1ccccc1 (stereo not drawn) [Compound 251]
5 | 1200 | O=C(Nc1nnc(CCCCc2nnc(NC(=O)C(OCCO)c3ccccc3)s2)s1)C(OCCO)c1ccccc1 (stereo not drawn) [Compound 252]
6 | 21000 | O=C(CO)Nc1nnc(CCSCCc2nnc(NC(=O)CO)s2)s1 [Compound 253]
7 | > 20000 | CC(=O)OCC(=O)Nc1nnc(CCSCCc2nnc(NC(=O)CO)s2)s1 [Compound 254]
8 | 320 | COc1ccccc1C(C)C(=O)Nc1nnc(CCSCCc2nnc(NC(=O)C(C)c3ccccc3OC)s2)s1 (stereo not drawn) [Compound 263]
9 | 270 | COc1ccc(OC)c(CC(=O)Nc2nnc(CCCc3nnc(NC(=O)Cc4cc(OC)ccc4OC)s3)s2)c1 [Compound 265]
10 | 2200 | CC(=O)NCC(C(=O)Nc1nnc(CCCCc2nnc(NC(=O)C(CNC(C)=O)c3ccccc3)s2)s1)c1ccccc1 (stereo not drawn) [Compound 266]
11 | 100 | COc1ccc(OC)c(CC(=O)Nc2nnc(CCCCc3nnc(NC(=O)Cc4ccccc4)s3)s2)c1 [Compound 271]
12 | > 20000 | CC(C)[C@H](NC(=O)OC(C)(C)C)C(=O)OCC(C(=O)Nc1nnc(CCCCc2nnc(NC(=O)C(COC(=O)[C@@H](NC(=O)OC(C)(C)C)C(C)C)c3ccccc3)s2)s1)c1ccccc1 (stereo partly drawn) [Compound 272]
13 | 140 | O=C(Cc1cccc(F)c1)Nc1nnc(CCCCc2nnc(NC(=O)Cc3cccc(F)c3)s2)s1 [Compound 273]
14 | > 20000 | CC1(C)OCC(C(=O)Nc2nnc(CCCCc3nnc(NC(=O)C4(c5ccccc5)COC(C)(C)O4)s3)s2)(c2ccccc2)O1 (stereo not drawn) [Compound 277]
15 | 380 | O=C(Nc1nnc(CCCCc2nnc(NC(=O)C(O)(CO)c3ccccc3)s2)s1)C(O)(CO)c1ccccc1 (stereo not drawn) [Compound 278]
16 | 680 | CC1(C)OCC(C(=O)Nc2nnc(CCCCc3nnc(NC(=O)Cc4ccccc4)s3)s2)(c2ccccc2)O1 (stereo not drawn) [Compound 279]
17 | 290 | O=C(Cc1ccccc1)Nc1nnc(CCCCc2nnc(NC(=O)C(O)(CO)c3ccccc3)s2)s1 (stereo not drawn) [Compound 280]
18 | 740 | C=C(C(=O)Nc1nnc(CCCCc2nnc(NC(=O)C(COC(=O)CCN3CCOCC3)c3ccccc3)s2)s1)c1ccccc1 (stereo not drawn) [Compound 281]
19 | 82 | O=C(Cc1ccccc1Br)Nc1nnc(CCCCc2nnc(NC(=O)Cc3ccccc3Br)s2)s1 [Compound 282]
20 | 660 | O=C(Cc1ccccc1Br)Nc1nnc(CCSCCc2nnc(NC(=O)Cc3ccccc3Br)s2)s1 [Compound 283]
21 | 570 | O=C(Nc1nnc(CCCCc2nnc(NC(=O)C(O)c3ccccc3Br)s2)s1)C(O)c1ccccc1Br (stereo not drawn) [Compound 287]
22 | 32000 | CC(CCC(C)c1nnc(NC(=O)Cc2ccccc2)s1)c1nnc(NC(=O)Cc2ccccc2)s1 (stereo not drawn) [Compound 289]
23 | 800 | O=C(Cc1ccccc1)Nc1nnc(CCCCc2nnc(NC(=O)[C@H]3CCCC[C@@H]3C(=O)c3ccccc3)s2)s1 [Compound 290]

Row | IC50 [nM] | SMILES
24 | 1500 | CC(C)[C@H](N)C(=O)OCC(C(=O)Nc1nnc(CCCCc2nnc(NC(=O)C(COC(=O)[C@@H](N)C(C)C)c3ccccc3)s2)s1)c1ccccc1 (stereo partly drawn) [Compound 291]
25 | 120 | O=C(Cc1ccccc1F)Nc1nnc(CCCCc2nnc(NC(=O)Cc3ccccc3F)s2)s1 [Compound 292]
26 | 240 | O=C(Cc1c(F)cccc1F)Nc1nnc(CCCCc2nnc(NC(=O)Cc3c(F)cccc3F)s2)s1 [Compound 293]
27 | 200 | O=C(Cc1ccccc1F)Nc1nnc(CCSCCc2nnc(NC(=O)Cc3ccccc3F)s2)s1 [Compound 294]
28 | 100 | Cc1nccn1Cc1cccc(CC(=O)Nc2nnc(CCCCc3nnc(NC(=O)Cc4cccc(Cn5ccnc5C)c4)s3)s2)c1 [Compound 296]
29 | 6400 | CN(C)CC(=O)Nc1nnc(CCCCc2nnc(NC(=O)Cc3ccccc3)s2)s1 [Compound 297]
30 | 730 | O=C(Cc1c(F)cccc1F)Nc1nnc(CCSCCc2nnc(NC(=O)Cc3c(F)cccc3F)s2)s1 [Compound 298]
31 | 330 | CCOc1ccccc1CC(=O)Nc1nnc(CCSCCc2nnc(NC(=O)Cc3ccccc3OCC)s2)s1 [Compound 299]
32 | 160 | CCOc1ccccc1CC(=O)Nc1nnc(CCCCc2nnc(NC(=O)Cc3ccccc3OCC)s2)s1 [Compound 300]
33 | > 20000 | O=C(OCC(C(=O)Nc1nnc(CCCCc2nnc(NC(=O)C(COC(=O)C3CCN(C(=O)OCc4ccccc4)CC3)c3ccccc3)s2)s1)c1ccccc1)C1CCN(C(=O)OCc2ccccc2)CC1 (stereo not drawn) [Compound 301]
34 | 7000 | O=C(OCC(C(=O)Nc1nnc(CCCCc2nnc(NC(=O)C(COC(=O)C3CCNCC3)c3ccccc3)s2)s1)c1ccccc1)C1CCNCC1 (stereo not drawn) [Compound 302]
35 | > 20000 | O=C(Nc1nnc(CCCCc2nnc(NC(=O)C(F)(F)c3ccccc3)s2)s1)C(F)(F)c1ccccc1 [Compound 303]
36 | 1200 | O=C(Cc1ccccc1)Nc1nnc(CCCCc2nnc(NC(=O)[C@@H]3CCCC[C@H]3C(O)c3ccccc3)s2)s1 (stereo partly drawn) [Compound 304]
37 | 600 | O=C(Cc1ccccn1)Nc1nnc(CCSCCc2nnc(NC(=O)Cc3ccccn3)s2)s1 [Compound 308]
38 | 110 | O=C(Cc1ccccc1)Nc1nnc(CCCCc2nnc(NC(=O)Cc3cccnc3)s2)s1 [Compound 309]
39 | 200 | O=C(Cc1cccnc1)Nc1nnc(CCCCc2nnc(NC(=O)Cc3cccnc3)s2)s1 [Compound 311]
40 | 190 | O=C(Cc1ccccc1)Nc1nnc(CCCCc2nnc(NC(=O)C(CO)c3ccccc3)s2)s1 (stereo not drawn) [Compound 316]
41 | 640 | COc1cc(C(O)C(=O)Nc2nnc(CCCCc3nnc(NC(=O)C(O)c4ccc(O)c(OC)c4)s3)s2)ccc1O (stereo not drawn) [Compound 319]
42 | 400 | COc1ccc(C(O)C(=O)Nc2nnc(CCCCc3nnc(NC(=O)C(O)c4ccc(OC)cc4)s3)s2)cc1 (stereo not drawn) [Compound 320]
43 | 2500 | C[C@H](O)C(=O)Nc1nnc(CCCCc2nnc(NC(=O)Cc3ccccc3)s2)s1 [Compound 321]
44 | 2800 | C[C@@H](O)C(=O)Nc1nnc(CCCCc2nnc(NC(=O)Cc3ccccc3)s2)s1 [Compound 322]
45 | 56 | O=C(Cc1cccc2[nH]ccc12)Nc1nnc(CCCCc2nnc(NC(=O)Cc3cccc4[nH]ccc34)s2)s1 [Compound 323]

Row | SMILES | IC50 [nM]
46 | NCC(C(=O)Nc1nnc(CCSCCc2nnc(NC(=O)C(CN)c3ccccc3)s2)s1)c1ccccc1 (stereo not drawn) [Compound 230] | 12000
47 | NCC(C(=O)Nc1nnc(CCCCc2nnc(NC(=O)C(CN)c3ccccc3)s2)s1)c1ccccc1 (stereo not drawn) [Compound 231] | 7400
48 | CC(=O)NCC(C(=O)Nc1nnc(CCSCCc2nnc(NC(=O)C(CNC(C)=O)c3ccccc3)s2)s1)c1ccccc1 (stereo not drawn) [Compound 232] | 9800
49 | O=C(Cc1cccs1)Nc1nnc(CCSCc2nnc(NC(=O)Cc3cccs3)s2)s1 [Compound 237] | 200
50 | O=C(CN1C(=O)OC[C@H]1c1ccccc1)Nc1nnc(CCSCCc2nnc(NC(=O)CN3C(=O)OC[C@H]3c3ccccc3)s2)s1 [Compound 243] | 2700
51 | CCOC(=O)Nc1nnc(CCCCc2nnc(NC(=O)Cc3ccccc3)s2)s1 [Compound 244] | 840
52 | COc1ccccc1CC(=O)Nc1nnc(CCSCCc2nnc(NC(=O)C(CO)c3ccccc3OC)s2)s1 (stereo not drawn) [Compound 246] | 400
53 | Cc1cccc(CC(=O)Nc2nnc(CCSCCc3nnc(NC(=O)Cc4cccc(C)c4)s3)s2)c1 [Compound 247] | 190
54 | COc1ccccc1CC(=O)Nc1nnc(CCSCc2nnc(NC(=O)Cc3ccccc3OC)s2)s1 [Compound 249] | 120
55 | O=C(Cc1ccccc1Cl)Nc1nnc(CCSCCc2nnc(NC(=O)Cc3ccccc3Cl)s2)s1 [Compound 255] | 380
56 | COc1cccc(C(CO)C(=O)Nc2nnc(CCCCc3nnc(NC(=O)C(CO)c4cccc(OC)c4)s3)s2)c1 (stereo not drawn) [Compound 257] | 120
57 | COc1cccc(C(CO)C(=O)Nc2nnc(CCSCc3nnc(NC(=O)C(CO)c4cccc(OC)c4)s3)s2)c1 (stereo not drawn) [Compound 258] | 190
58 | COc1cccc(CC(=O)Nc2nnc(CCSCCc3nnc(NC(=O)Cc4cccc(OC)c4OC)s3)s2)c1OC [Compound 259] | 230
59 | COc1cccc(CC(=O)Nc2nnc(CCCCc3nnc(NC(=O)Cc4cccc(OC)c4OC)s3)s2)c1OC [Compound 260] | 150
60 | CC(C(=O)Nc1nnc(CCSCCc2nnc(NC(=O)C(C)c3ccccc3Cl)s2)s1)c1ccccc1Cl (stereo not drawn) [Compound 261] | 700
61 | Cc1ccccc1C(C)C(=O)Nc1nnc(CCSCCc2nnc(NC(=O)C(C)c3ccccc3C)s2)s1 (stereo not drawn) [Compound 262] | 360
62 | COc1ccccc1CC(=O)Nc1nnc(CCCCc2nnc(NC(=O)Cc3ccccc3OC)s2)s1 [Compound 264] | 72
63 | O=C(Cc1cccc(OCCN2CCOCC2)c1)Nc1nnc(CCSCc2nnc(NC(=O)Cc3cccc(OCCN4CCOCC4)c3)s2)s1 [Compound 267] | 610
64 | O=C(Cc1ccc2ncccc2c1)Nc1nnc(CCSCCc2nnc(NC(=O)Cc3ccc4ncccc4c3)s2)s1 [Compound 268] | 600
65 | O=C(Cc1ccc2ncccc2c1)Nc1nnc(CCCCc2nnc(NC(=O)Cc3ccc4ncccc4c3)s2)s1 [Compound 269] | 260
66 | CC(C(=O)Nc1nnc(CCCCc2nnc(NC(=O)C(C)c3ccccc3Cl)s2)s1)c1ccccc1Cl (stereo not drawn) [Compound 274] | 750
67 | O=C(Cc1cccc(Br)c1)Nc1nnc(CCCCc2nnc(NC(=O)Cc3cccc(Br)c3)s2)s1 [Compound 284] | > 20000
68 | O=C(Cc1cccc(-n2cccn2)c1)Nc1nnc(CCCCc2nnc(NC(=O)Cc3cccc(-n4cccn4)c3)s2)s1 [Compound 285] | 190
69 | O=C(Cc1cccc(-c2cccnc2)c1)Nc1nnc(CCCCc2nnc(NC(=O)Cc3cccc(-c4cccnc4)c3)s2)s1 [Compound 312] | > 20000
